What was measured:
[1] = system: PBMC from coeliac volunteers; assay: Antagonism of A-gliadin 57-73 QE65 interferon gamma ELISPOT response (simultaneous addition of peptide); type: cell-based, human; conditions: peptides known to bind HLA-DQ2, 50 μg/ml plus A-gliadin 57-73 QE65 10 μg/ml
Description: Simultaneous addition of peptide (50 μg/ml) or buffer and A-gliadin 57-73 QE65 (10 μg/ml) in IFNgamma ELISPOT using PBMC from coeliac volunteers 6 days after commencing 3 day gluten challenge (n=5). Results were expressed as response with peptide plus A-G 57-73 QE65 (mean of duplicates) as % response with buffer plus A-G 57-73 QE65 (mean of 20 replicates). (See Table 9).

HLA-DQ2 = conditions: cited from earlier work

| Sequence | % Inhibit. of A-gliadin 57-73 QE65 interferon gamma ELISpot response [1] | binding to HLA-DQ2 (HLA-DQ2) | % Inhibit. of A-gliadin 57-73 QE65 interferon gamma ELISpot response ([1]; listed as HLA class 1 α 46-60) |
| --- | --- | --- | --- |
| IDVWLGGLLAENFLPY [TP, reference compound] | 31% | bind avidly to HLA-DQ2 |  |
| PRAPWIEQEGPEYW [HLA1a, reference compound] | 0% | bind avidly to HLA-DQ2 | does not alter responses |
